PubChem BioAssay (NCI)
“And” between values parts separate entries of the source, which are not always exact repeats. Equal entries are not always repeated.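 Grown in 96-well plates, cells were treated for 48 hours with each compound at five concentrations. Insufficient inhibition: endpoint recorded as highest concentration tested. Abbreviation: GI50, concentration required for 50% inhibition of growth. The concentration for full growth arrest is given as TGI.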 Where a SMILES comes first, the peptide text is derived from it. [ ]: non-standard residue; d: D form. NMeY = CN[C@@H](Cc1ccc(O)cc1)C(=O)O; dNMeF = CN[C@H](Cc1ccccc1)C(=O)O; Sar = CNCC(=O)O

What was measured:
Assay in all cases: growth of human tumour cells (NCI), 48 h
ACHN renal = test system: ACHN renal
HCC-2998 colon = test system: HCC-2998 colon
HOP-62 NSCLC = test system: HOP-62 NSCLC
M14 melanoma = test system: M14 melanoma
MCF7 breast = test system: MCF7 breast
MOLT-4 leukemia = test system: MOLT-4 leukemia
OVCAR-5 ovarian = test system: OVCAR-5 ovarian
SF-539 CNS = test system: SF-539 CNS
UACC-257 melanoma = test system: UACC-257 melanoma
UACC-62 melanoma = test system: UACC-62 melanoma

COc1ccc2[nH]c(=O)c(/C=C/C(=O)/C=C/c3ccc(O)c(OC)c3)cc2c1
GI50 (ACHN renal): 1.68 µM | TGI (ACHN renal): 3.13 µM | GI50 (HCC-2998 colon): 1.97 µM | TGI (HCC-2998 colon): 3.64 µM | GI50 (HOP-62 NSCLC): 2.03 µM | TGI (HOP-62 NSCLC): 4.75 µM | GI50 (M14 melanoma): 1.67 µM | TGI (M14 melanoma): 4.99 µM | GI50 (MCF7 breast): 0.388 µM | TGI (MCF7 breast): 1.89 µM | GI50 (MOLT-4 leukemia): 2.93 µM | TGI (MOLT-4 leukemia): > 100 µM | GI50 (OVCAR-5 ovarian): 1.88 µM | TGI (OVCAR-5 ovarian): 3.66 µM | GI50 (SF-539 CNS): 1.58 µM | TGI (SF-539 CNS): 3.21 µM | GI50 (UACC-257 melanoma): 1.58 µM | TGI (UACC-257 melanoma): 3.09 µM | GI50 (UACC-62 melanoma): 1.52 µM | TGI (UACC-62 melanoma): 3.19 µM

S=C=NCc1ccccc1
TGI (ACHN renal): 12.7 µM | TGI (HCC-2998 colon): 23.1 µM | TGI (HOP-62 NSCLC): 11.7 µM | TGI (M14 melanoma): 5.81 µM | TGI (MCF7 breast): 28.6 µM | TGI (MOLT-4 leukemia): 4.37 µM | TGI (OVCAR-5 ovarian): 29.8 µM | TGI (SF-539 CNS): 3.79 µM | TGI (UACC-257 melanoma): 15.2 µM | TGI (UACC-62 melanoma): 14.1 µM

CN(C)CCNC(=O)Cn1ccc(=O)c2ccc([N+](=O)[O-])cc21
TGI (ACHN renal): > 100 µM | TGI (HCC-2998 colon): > 100 µM | TGI (HOP-62 NSCLC): > 100 µM | TGI (M14 melanoma): > 100 µM | TGI (MCF7 breast): > 100 µM | TGI (MOLT-4 leukemia): > 100 µM | TGI (OVCAR-5 ovarian): > 100 µM | TGI (SF-539 CNS): > 100 µM | TGI (UACC-257 melanoma): > 100 µM | TGI (UACC-62 melanoma): > 100 µM

CC[C@H](C)[C@@H]1NC(=O)[C@H](Cc2ccc(O)cc2)N(C)C(=O)[C@H](Cc2ccccc2)NC(=O)CN(C)C(=O)[C@@H]2CCCN2C(=O)[C@@H](Cc2ccccc2)N(C)C(=O)[C@H](CC(C)C)NC1=O (cyclo(F[NMeY]IL[dNMeF]P[Sar]))
GI50 (ACHN renal): 2.34 µM | TGI (ACHN renal): 11.6 µM | GI50 (HCC-2998 colon): 0.39 µM | TGI (HCC-2998 colon): 5.01 µM | GI50 (HOP-62 NSCLC): 0.296 µM | TGI (HOP-62 NSCLC): 5.84 µM | GI50 (M14 melanoma): 0.371 µM | TGI (M14 melanoma): 2.58 µM | GI50 (MCF7 breast): 0.103 µM | TGI (MCF7 breast): 2.69 µM | GI50 (MOLT-4 leukemia): 0.314 µM | TGI (MOLT-4 leukemia): 10.6 µM | GI50 (OVCAR-5 ovarian): 0.299 µM | TGI (OVCAR-5 ovarian): 8.09 µM | GI50 (SF-539 CNS): 0.287 µM | TGI (SF-539 CNS): 2.61 µM | GI50 (UACC-257 melanoma): 0.267 µM | TGI (UACC-257 melanoma): 3.05 µM | GI50 (UACC-62 melanoma): 0.367 µM | TGI (UACC-62 melanoma): 2.75 µM

C/C1=C\C/C=C(\C)[C@H]2CC(CC/C(C)=C/CC1)[C@@](C)(CO)O2
GI50 (ACHN renal): > 100 µM | TGI (ACHN renal): > 100 µM | GI50 (HCC-2998 colon): > 100 µM | TGI (HCC-2998 colon): > 100 µM | GI50 (HOP-62 NSCLC): 47.6 µM | TGI (HOP-62 NSCLC): > 100 µM | GI50 (M14 melanoma): 71.7 µM | TGI (M14 melanoma): > 100 µM | GI50 (MCF7 breast): 26.7 µM | TGI (MCF7 breast): 77.7 µM | GI50 (MOLT-4 leukemia): 23.5 µM | TGI (MOLT-4 leukemia): > 100 µM | GI50 (OVCAR-5 ovarian): > 100 µM | TGI (OVCAR-5 ovarian): > 100 µM | GI50 (SF-539 CNS): > 100 µM | TGI (SF-539 CNS): > 100 µM | GI50 (UACC-257 melanoma): > 100 µM | TGI (UACC-257 melanoma): > 100 µM | GI50 (UACC-62 melanoma): 69.2 µM | TGI (UACC-62 melanoma): > 100 µM

CCOC(=O)Cn1c(C)c(/C=N/NC(=O)c2cc3c(ccc4ccccc43)o2)c2ccccc21
GI50 (ACHN renal): 0.926 µM | TGI (ACHN renal): 3.21 µM | GI50 (HCC-2998 colon): 0.609 µM | TGI (HCC-2998 colon): 2.84 µM | GI50 (HOP-62 NSCLC): 0.554 µM | TGI (HOP-62 NSCLC): 4.79 µM | GI50 (M14 melanoma): 0.307 µM | TGI (M14 melanoma): 4.35 µM | GI50 (MCF7 breast): 0.31 µM | TGI (MCF7 breast): 4.85 µM | GI50 (MOLT-4 leukemia): 0.96 µM | TGI (MOLT-4 leukemia): > 30.1 µM | GI50 (OVCAR-5 ovarian): 0.872 µM | TGI (OVCAR-5 ovarian): 10.7 µM | GI50 (SF-539 CNS): 0.316 µM | TGI (SF-539 CNS): 1.28 µM | GI50 (UACC-257 melanoma): 2.38 µM | TGI (UACC-257 melanoma): > 30.4 µM | GI50 (UACC-62 melanoma): 0.3 µM | TGI (UACC-62 melanoma): 11 µM

CO[C@H]1C[C@@H]2CC[C@@H](C)[C@@](O)(O2)C(=O)C(=O)N2CCCC[C@H]2C(=O)O[C@H]([C@H](C)C[C@@H]2CC[C@@H](OP(C)(C)=O)[C@H](OC)C2)CC(=O)[C@H](C)/C=C(\C)[C@@H](O)[C@@H](OC)C(=O)[C@H](C)C[C@H](C)/C=C/C=C/C=C/1C
GI50 (ACHN renal): 0.411 µM | TGI (ACHN renal): 21.5 µM | GI50 (HCC-2998 colon): 5.02 µM | TGI (HCC-2998 colon): 24.7 µM | GI50 (HOP-62 NSCLC): < 0.01 µM | TGI (HOP-62 NSCLC): 21.5 µM | GI50 (M14 melanoma): 11.8 µM | TGI (M14 melanoma): 26 µM | GI50 (MCF7 breast): 0.402 µM | TGI (MCF7 breast): 21 µM | GI50 (MOLT-4 leukemia): 2.96 µM | TGI (MOLT-4 leukemia): 37.1 µM | GI50 (OVCAR-5 ovarian): 11.4 µM | TGI (OVCAR-5 ovarian): 27.6 µM | GI50 (SF-539 CNS): < 0.0234 µM | TGI (SF-539 CNS): 21.7 µM | GI50 (UACC-257 melanoma): 3.21 µM | TGI (UACC-257 melanoma): 21.8 µM | GI50 (UACC-62 melanoma): 0.386 µM | TGI (UACC-62 melanoma): 20.7 µM

O=C1c2ccccc2-c2n[nH]c3cccc1c23
TGI (ACHN renal): > 100 µM | GI50 (HCC-2998 colon): 19.3 µM | TGI (HCC-2998 colon): 54.6 µM and > 100 µM | GI50 (HOP-62 NSCLC): 32.1 µM | TGI (HOP-62 NSCLC): > 100 µM | GI50 (M14 melanoma): 5.03 µM | TGI (M14 melanoma): > 100 µM | GI50 (MCF7 breast): 21.1 µM | TGI (MCF7 breast): > 100 µM | GI50 (MOLT-4 leukemia): 7.85 µM | TGI (MOLT-4 leukemia): > 100 µM | TGI (OVCAR-5 ovarian): 85.4 µM and > 100 µM | GI50 (SF-539 CNS): 25.1 µM | TGI (SF-539 CNS): > 100 µM | TGI (UACC-257 melanoma): > 100 µM | GI50 (UACC-62 melanoma): 19.7 µM | TGI (UACC-62 melanoma): 86.6 µM and > 100 µM
